In article PMC11233931, “Remodeling tumor‐associated macrophage for anti‐cancer effects by rational design of irreversible inhibition of mitogen‐activated protein kinase‐activated protein kinase 2” (MedComm, 2024):
Read-outs that look alike come from different tables or passages of the source.

Columns and labels:
Assay in all cases: Eurofins kinase selectivity profile against 380 other human recombinant kinases (Table S2)
Format in all cases: biochemical
[1] = target: T1, 380 human recombinant protein kinases (Homo sapiens, UniProt P48729); details: CK1α(h), read-out: Inhibition rate
T1 construct: purchased Eurofins (Celle Lévescault)
Procedure, shortened: (§1)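 Values come from a contract kinase-profiling service that tested the compound at multiple concentrations across 380 recombinant human kinases, as an off-target check against the MK2 activity.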

[2] = target: T2, 380 human recombinant protein kinases (Homo sapiens, UniProt Q9P286); details: PAK5(h), read-out: Inhibition rate
T2 construct: purchased Eurofins (Celle Lévescault)
Procedure, shortened: as §1

[3] = target: T3, 380 human recombinant protein kinases (Homo sapiens, UniProt Q9BXA7); details: TSSK1(h), read-out: Inhibition rate (%)
T3 construct: purchased Eurofins (Celle Lévescault)
T3 sequence (Q9BXA7 1-367): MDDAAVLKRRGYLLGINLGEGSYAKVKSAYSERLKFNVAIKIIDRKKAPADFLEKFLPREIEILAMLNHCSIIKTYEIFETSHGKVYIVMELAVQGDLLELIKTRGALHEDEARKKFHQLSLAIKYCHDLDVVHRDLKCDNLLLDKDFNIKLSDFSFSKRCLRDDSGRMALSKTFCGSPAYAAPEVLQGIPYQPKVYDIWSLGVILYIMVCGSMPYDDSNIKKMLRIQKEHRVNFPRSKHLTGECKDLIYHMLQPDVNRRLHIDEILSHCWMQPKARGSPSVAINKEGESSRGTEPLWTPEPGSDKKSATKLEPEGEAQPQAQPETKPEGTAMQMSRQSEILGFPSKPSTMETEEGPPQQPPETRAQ
Procedure, shortened: as §1

[4] = target: T4, 380 human recombinant protein kinases (Homo sapiens, UniProt Q86V86); details: Pim-3(h), read-out: Inhibition rate
T4 construct: purchased Eurofins (Celle Lévescault)
Procedure, shortened: as §1

[5] = target: T5, 380 human recombinant protein kinases (Homo sapiens, UniProt P51817); details: PrKX(h), read-out: Inhibition rate
T5 construct: purchased Eurofins (Celle Lévescault)
T5 sequence (P51817 1-358): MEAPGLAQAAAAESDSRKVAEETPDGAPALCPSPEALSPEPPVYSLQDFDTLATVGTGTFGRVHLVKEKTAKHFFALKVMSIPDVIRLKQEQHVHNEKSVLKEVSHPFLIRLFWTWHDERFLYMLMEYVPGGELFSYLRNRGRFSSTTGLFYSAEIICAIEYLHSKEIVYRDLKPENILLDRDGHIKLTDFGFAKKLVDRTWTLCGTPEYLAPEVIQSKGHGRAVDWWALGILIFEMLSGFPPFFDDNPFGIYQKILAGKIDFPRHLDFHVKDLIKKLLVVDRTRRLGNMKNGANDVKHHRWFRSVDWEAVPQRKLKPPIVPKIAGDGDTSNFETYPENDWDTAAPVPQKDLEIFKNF
Procedure, shortened: as §1

[6] = target: T6, 380 human recombinant protein kinases (Homo sapiens, UniProt Q13523); details: PRP4(h), read-out: Inhibition rate
T6 construct: purchased Eurofins (Celle Lévescault)
Procedure, shortened: as §1

[7] = target: T7, 380 human recombinant protein kinases (Homo sapiens, UniProt P68400); details: read-out: Inhibition rate; for inhibition at 0.01 µM: 10 nM; for inhibition at 0.1 µM: 100 nM; for inhibition at 1 µM: 1000 nM
T7 construct: purchased Eurofins (Celle Lévescault)
Procedure, shortened: as §1

[8] = target: T8, 380 human recombinant protein kinases (Homo sapiens, UniProt P00533); details: EGFR(h), read-out: Inhibition rate
T8 construct: purchased Eurofins (Celle Lévescault)
Procedure, shortened: as §1

[9] = target: T9, 380 human recombinant protein kinases (Homo sapiens, UniProt P08069); details: IGF-1R(h), read-out: Inhibition rate
T9 construct: purchased Eurofins (Celle Lévescault)
Procedure, shortened: as §1

[10] = target: T10, 380 human recombinant protein kinases (Homo sapiens, UniProt O96017); details: CHK2(h), read-out: Inhibition rate
T10 construct: purchased Eurofins (Celle Lévescault)
Procedure, shortened: as §1

[11] = target: T11, 380 human recombinant protein kinases (Homo sapiens, UniProt O43781); details: DYRK3(h), read-out: Inhibition rate
T11 construct: purchased Eurofins (Celle Lévescault)
T11 sequence (O43781 1-588): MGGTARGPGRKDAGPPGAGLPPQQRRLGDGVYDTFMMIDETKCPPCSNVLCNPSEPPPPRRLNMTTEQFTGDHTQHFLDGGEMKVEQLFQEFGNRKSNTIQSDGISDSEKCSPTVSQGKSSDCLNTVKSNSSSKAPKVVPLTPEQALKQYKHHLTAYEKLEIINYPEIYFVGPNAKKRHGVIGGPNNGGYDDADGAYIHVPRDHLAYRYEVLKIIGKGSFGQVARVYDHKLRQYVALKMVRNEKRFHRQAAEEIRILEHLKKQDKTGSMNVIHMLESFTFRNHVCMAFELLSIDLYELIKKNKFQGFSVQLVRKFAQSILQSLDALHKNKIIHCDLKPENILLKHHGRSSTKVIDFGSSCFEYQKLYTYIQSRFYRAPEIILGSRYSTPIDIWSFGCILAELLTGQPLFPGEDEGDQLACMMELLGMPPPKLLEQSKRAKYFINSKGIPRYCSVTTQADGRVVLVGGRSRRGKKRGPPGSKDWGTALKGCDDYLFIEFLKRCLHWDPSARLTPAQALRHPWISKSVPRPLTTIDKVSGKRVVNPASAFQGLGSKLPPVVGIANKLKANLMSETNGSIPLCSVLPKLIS
Procedure, shortened: as §1

[12] = target: T12, 380 human recombinant protein kinases (Homo sapiens, UniProt Q96NX5); details: CaMKIγ(h), read-out: Inhibition rate
T12 construct: purchased Eurofins (Celle Lévescault)
Procedure, shortened: as §1

T12 sequence (Q96NX5 whole entry): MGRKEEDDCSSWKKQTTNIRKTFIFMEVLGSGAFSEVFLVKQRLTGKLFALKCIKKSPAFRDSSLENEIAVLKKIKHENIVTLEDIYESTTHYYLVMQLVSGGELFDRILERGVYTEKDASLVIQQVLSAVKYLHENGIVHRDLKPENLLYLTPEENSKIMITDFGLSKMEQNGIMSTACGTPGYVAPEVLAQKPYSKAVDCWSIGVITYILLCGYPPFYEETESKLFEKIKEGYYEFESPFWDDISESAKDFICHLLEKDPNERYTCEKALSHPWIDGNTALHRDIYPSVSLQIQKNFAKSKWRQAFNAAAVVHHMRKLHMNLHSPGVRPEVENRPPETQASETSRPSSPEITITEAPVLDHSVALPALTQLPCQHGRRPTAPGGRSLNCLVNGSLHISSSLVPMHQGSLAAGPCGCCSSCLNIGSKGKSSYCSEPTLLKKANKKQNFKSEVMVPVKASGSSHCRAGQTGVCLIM
T2 sequence (Q9P286 whole entry): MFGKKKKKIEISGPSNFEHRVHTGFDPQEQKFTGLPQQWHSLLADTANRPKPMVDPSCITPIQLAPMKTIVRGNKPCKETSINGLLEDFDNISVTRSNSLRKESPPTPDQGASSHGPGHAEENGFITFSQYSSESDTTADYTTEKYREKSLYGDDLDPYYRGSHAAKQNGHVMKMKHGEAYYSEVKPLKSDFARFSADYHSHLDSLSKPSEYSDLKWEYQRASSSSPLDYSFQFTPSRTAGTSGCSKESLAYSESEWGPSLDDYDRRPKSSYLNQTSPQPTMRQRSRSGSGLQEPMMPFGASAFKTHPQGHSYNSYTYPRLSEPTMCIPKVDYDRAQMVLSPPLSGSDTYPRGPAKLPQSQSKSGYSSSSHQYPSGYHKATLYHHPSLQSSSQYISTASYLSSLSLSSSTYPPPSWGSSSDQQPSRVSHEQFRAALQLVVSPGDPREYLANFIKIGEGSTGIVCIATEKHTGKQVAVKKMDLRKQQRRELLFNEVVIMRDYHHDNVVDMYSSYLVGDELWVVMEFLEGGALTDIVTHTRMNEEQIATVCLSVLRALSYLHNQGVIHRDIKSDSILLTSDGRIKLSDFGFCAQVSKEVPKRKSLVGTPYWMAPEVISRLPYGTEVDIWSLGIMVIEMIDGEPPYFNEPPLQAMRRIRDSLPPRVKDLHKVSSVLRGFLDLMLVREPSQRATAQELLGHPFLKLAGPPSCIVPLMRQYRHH
T7 sequence (P68400 whole entry): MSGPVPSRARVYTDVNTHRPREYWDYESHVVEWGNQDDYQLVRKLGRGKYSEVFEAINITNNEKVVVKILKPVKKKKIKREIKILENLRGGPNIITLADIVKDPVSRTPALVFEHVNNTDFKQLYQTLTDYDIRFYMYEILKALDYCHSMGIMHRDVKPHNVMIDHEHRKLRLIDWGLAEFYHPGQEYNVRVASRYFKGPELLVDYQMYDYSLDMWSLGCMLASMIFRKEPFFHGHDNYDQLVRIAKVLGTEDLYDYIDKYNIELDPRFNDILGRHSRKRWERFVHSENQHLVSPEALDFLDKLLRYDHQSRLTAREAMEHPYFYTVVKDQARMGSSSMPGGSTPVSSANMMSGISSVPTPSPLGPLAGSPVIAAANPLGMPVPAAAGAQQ
T1 sequence (P48729 whole entry): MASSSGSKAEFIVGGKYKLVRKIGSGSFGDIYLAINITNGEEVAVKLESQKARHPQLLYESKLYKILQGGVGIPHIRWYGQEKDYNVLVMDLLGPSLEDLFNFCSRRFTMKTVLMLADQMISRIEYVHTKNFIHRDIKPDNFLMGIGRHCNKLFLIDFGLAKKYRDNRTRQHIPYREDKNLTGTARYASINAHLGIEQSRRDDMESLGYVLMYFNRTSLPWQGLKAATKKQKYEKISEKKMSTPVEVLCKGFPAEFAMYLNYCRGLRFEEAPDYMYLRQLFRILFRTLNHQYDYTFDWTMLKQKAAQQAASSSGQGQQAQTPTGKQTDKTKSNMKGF
T9 sequence (P08069 31-1367): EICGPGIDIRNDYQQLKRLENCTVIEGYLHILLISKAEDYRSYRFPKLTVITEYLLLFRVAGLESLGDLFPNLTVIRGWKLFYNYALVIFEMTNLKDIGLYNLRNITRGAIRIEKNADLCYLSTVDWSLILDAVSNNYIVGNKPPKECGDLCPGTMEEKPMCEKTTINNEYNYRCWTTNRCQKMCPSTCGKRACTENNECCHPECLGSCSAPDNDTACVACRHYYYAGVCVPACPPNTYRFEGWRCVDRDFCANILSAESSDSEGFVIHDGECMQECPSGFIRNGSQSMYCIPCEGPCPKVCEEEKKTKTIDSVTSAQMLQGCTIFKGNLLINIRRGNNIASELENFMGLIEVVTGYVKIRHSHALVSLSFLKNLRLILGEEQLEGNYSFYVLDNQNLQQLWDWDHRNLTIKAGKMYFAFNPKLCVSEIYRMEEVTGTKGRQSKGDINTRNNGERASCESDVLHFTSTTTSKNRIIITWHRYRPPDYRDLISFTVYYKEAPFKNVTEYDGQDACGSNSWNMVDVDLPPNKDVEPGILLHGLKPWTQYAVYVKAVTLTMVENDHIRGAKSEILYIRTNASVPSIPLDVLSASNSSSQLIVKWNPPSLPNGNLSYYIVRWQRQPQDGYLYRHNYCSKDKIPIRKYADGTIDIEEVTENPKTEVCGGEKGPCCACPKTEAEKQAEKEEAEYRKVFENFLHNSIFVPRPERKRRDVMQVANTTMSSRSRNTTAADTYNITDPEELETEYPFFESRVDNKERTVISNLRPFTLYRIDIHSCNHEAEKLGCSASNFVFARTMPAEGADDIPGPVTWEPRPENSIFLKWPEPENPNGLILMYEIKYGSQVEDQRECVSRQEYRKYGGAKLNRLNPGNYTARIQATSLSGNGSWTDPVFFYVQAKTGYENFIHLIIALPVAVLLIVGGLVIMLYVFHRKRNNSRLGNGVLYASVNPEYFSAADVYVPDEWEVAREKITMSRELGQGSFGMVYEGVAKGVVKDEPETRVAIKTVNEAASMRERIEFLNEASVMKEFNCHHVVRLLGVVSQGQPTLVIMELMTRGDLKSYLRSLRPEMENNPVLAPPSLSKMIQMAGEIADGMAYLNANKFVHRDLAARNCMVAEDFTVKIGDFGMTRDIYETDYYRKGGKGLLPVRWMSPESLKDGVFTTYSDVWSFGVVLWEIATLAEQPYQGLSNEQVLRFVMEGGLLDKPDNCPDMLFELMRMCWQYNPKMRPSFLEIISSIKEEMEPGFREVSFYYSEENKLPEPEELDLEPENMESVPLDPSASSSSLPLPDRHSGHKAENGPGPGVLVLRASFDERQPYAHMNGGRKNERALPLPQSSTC
T6 sequence (Q13523 whole entry): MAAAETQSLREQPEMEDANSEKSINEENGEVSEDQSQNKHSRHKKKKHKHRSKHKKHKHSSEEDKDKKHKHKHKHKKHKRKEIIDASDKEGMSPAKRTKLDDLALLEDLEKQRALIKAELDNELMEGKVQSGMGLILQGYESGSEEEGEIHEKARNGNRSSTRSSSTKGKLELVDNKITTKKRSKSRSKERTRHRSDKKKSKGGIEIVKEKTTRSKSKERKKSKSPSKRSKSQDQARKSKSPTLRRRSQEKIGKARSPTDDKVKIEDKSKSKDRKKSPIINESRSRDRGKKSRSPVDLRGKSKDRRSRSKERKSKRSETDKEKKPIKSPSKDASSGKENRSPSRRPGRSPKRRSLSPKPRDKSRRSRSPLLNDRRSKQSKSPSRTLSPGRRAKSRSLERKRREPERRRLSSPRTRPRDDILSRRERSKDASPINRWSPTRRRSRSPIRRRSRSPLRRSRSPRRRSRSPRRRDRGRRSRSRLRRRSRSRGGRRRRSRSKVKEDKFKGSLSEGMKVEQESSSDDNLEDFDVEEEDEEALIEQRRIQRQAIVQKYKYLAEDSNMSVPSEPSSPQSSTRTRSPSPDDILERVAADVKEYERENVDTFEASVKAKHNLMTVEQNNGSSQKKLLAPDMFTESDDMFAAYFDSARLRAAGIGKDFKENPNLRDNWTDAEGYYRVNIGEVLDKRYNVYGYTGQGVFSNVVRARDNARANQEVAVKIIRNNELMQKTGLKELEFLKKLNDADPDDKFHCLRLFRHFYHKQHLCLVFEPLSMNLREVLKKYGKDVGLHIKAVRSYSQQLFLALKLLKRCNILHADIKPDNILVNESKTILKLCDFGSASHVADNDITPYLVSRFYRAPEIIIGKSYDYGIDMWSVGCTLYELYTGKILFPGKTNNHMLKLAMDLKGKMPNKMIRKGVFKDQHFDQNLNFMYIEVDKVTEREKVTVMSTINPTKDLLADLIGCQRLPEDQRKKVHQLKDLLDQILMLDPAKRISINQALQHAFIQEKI

In the case of `C=CC(=O)Nc1cc(-c2cc(-c3cc4c([nH]3)CCNC4=O)ccn2)ccc1OC(F)(F)F` [compound 11], the inhibition at 0.01 µM ([1]; 10 nM) is reported as 15%, the inhibition at 0.1 µM ([1]; 100 nM) is reported as 30% and the inhibition at 1 µM ([1]; 1000 nM) is reported as 70%. For the same compound, the inhibition at 0.01 µM ([2]; 10 nM) was -2%, the inhibition at 0.1 µM ([2]; 100 nM) was -2% and the inhibition at 1 µM ([2]; 1000 nM) was -2%. For the same compound, the inhibition at 0.01 µM ([3]; 10 nM) was 1%, the inhibition at 0.1 µM ([3]; 100 nM) was 2% and the inhibition at 1 µM ([3]; 1000 nM) was 7%. The inhibition at 0.01 µM ([4]; 10 nM) was -1%, the inhibition at 0.1 µM ([4]; 100 nM) was 16% and the inhibition at 1 µM ([4]; 1000 nM) was 59%. For the same compound, the inhibition at 0.01 µM ([5]; 10 nM) was 3%, the inhibition at 0.1 µM ([5]; 100 nM) was 12% and the inhibition at 1 µM ([5]; 1000 nM) was 11%. The inhibition at 0.01 µM ([6]; 10 nM) was -1%, the inhibition at 0.1 µM ([6]; 100 nM) was -3% and the inhibition at 1 µM ([6]; 1000 nM) was 12%. For the same compound, the inhibition at 0.01 µM ([7]; CK2(h)) was -3%, the inhibition at 0.1 µM ([7]; CK2(h)) was -1% and the inhibition at 1 µM ([7]; CK2(h)) was 0%. It also gave an inhibition at 0.01 µM ([7]; CK2α1(h)) of -9%, an inhibition at 0.1 µM ([7]; CK2α1(h)) of -2% and an inhibition at 1 µM ([7]; CK2α1(h)) of 9%. It also gave an inhibition at 0.01 µM ([8]; 10 nM) of 3%, an inhibition at 0.1 µM ([8]; 100 nM) of -20% and an inhibition at 1 µM ([8]; 1000 nM) of -6%. For the same compound, the inhibition at 0.01 µM ([9]; 10 nM) was -3%, the inhibition at 0.1 µM ([9]; 100 nM) was -2% and the inhibition at 1 µM ([9]; 1000 nM) was -14%. It also gave an inhibition at 0.01 µM ([10]; 10 nM) of 3%, an inhibition at 0.1 µM ([10]; 100 nM) of 16% and an inhibition at 1 µM ([10]; 1000 nM) of 55%. It also gave an inhibition at 0.01 µM ([11]; 10 nM) of 34%, an inhibition at 0.1 µM ([11]; 100 nM) of 83% and an inhibition at 1 µM ([11]; 1000 nM) of 95%. For the same compound, the inhibition at 0.01 µM ([12]; 10 nM) was -9%, the inhibition at 0.1 µM ([12]; 100 nM) was -14% and the inhibition at 1 µM ([12]; 1000 nM) was -15%.
